Reference: patent publication US20110158919A1, “AROMA COMPOSITION COMPRISING O-COUMARIC ACID TO REDUCE OR SUPPRESS UNDESIRABLE TASTE IMPRESSIONS OF SWEETENERS” (SYMRISE AG, priority 2009, published 2011)
Structures can show the parent of a compound that is named as a salt.

Columns and labels:
[1] = Stability test for OCA in a carbonated soft drink; format: physicochemical; conditions: 5000 Lux at 37° C. for 9 days
Method: Test 2: Stability Test for OCA in a Carbonated Soft Drink A carbonated soft drink was prepared consisting of water, 10 ppm trans-o-coumaric acid, 350 ppm Rebaudioside A, 250 ppm sodium benzoate, 150 ppm potassium sorbate, 0.1 wt.-% of lemon/lime extract flavour and 0.15 wt.-% sodium citrate/citric acid. The latter was added to obtain a pH of 3.0±0.2. Said mixture was carbonated with 2.7 volumes of carbon dioxide. This PET-bottled drink was stressed with 5000 Lux at 37° C. for 9 days, thereby simulating a storage time (shelf life) of about 9 months at 20° C. At the end of the test the soft drink still contained 8 ppm of OCA, corresponding to an OCA-stability of 80% after a storage time of about 9 months.

[2] = Solubility of homoeriodictyol salts; format: physicochemical; conditions: in words

SMILES	OCA content of the soft drink at the end of the test ([1]; 10 ppm at start, PET-bottled carbonated soft drink, pH 3.0±0.2)	OCA-stability ([1]; simulating a storage time of about 9 months at 20° C.)	solubility compared with pure homoeriodictyol sodium salt [2]
O=C(O)/C=C/c1ccccc1O [OCA, (E)-3-(2-hydroxyphenyl)-2-propenoic acid]	8 ppm	80%	
COc1cc([C@@H]2CC(=O)c3c(O)cc(O)cc3O2)ccc1O [homoeriodictyol potassium salt]			better solubility
